Laboratory results as given in patent US9096624B2 (OSI Pharmaceuticals, LLC, priority 2009, dated 2015).
pIC50: −log10 of the molar value. Structures can show the parent of a compound that is named as a salt.

Molecular target: FAK (Homo sapiens, UniProt Q05397)
Assay: biochemical

Chain of FAK (Q05397 whole entry): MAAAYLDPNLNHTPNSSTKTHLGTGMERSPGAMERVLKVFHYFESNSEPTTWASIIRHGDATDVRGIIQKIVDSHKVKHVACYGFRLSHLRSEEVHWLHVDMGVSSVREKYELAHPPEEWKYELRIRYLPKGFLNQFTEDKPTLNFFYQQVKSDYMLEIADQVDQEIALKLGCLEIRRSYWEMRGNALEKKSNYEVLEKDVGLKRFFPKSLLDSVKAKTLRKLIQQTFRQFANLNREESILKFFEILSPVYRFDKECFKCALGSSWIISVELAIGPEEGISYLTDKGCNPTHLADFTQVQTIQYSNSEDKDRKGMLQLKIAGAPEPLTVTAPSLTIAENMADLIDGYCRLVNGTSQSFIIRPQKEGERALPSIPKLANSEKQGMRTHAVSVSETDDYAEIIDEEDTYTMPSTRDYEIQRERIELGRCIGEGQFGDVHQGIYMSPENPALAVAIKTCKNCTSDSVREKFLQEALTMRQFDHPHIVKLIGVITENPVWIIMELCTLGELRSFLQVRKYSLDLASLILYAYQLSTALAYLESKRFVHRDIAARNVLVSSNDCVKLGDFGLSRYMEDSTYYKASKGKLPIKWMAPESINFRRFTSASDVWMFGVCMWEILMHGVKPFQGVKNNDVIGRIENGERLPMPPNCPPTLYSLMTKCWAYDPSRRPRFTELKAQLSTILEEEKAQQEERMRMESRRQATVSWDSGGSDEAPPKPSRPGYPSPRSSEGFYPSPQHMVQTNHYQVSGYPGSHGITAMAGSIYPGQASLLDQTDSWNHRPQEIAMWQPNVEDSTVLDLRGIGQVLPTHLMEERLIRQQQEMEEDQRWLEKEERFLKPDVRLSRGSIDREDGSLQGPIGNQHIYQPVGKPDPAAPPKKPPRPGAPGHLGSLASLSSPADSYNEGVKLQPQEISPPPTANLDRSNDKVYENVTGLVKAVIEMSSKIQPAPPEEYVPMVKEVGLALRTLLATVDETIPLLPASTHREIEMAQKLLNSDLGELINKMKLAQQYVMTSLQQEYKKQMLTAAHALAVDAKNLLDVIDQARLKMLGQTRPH

Row | Structure (SMILES) | pIC50
1 | CCNC(=O)c1ccccc1Nc1nc(Nc2ccc(CP(=O)(OCC)OCC)cc2)ncc1C(F)(F)F [Example 152, Diethyl (4-{[4-{[2-(ethylcarbamoyl)phenyl]amino}-5-(trifluoromethyl)pyrimidin-2-yl]amino}benzyl)phosphonate] | > 6.00
2 | CCOP(=O)(O)C1CCC(c2ccc(Nc3nc(Nc4ccccc4OC)ncc3C(F)(F)F)c3c2CN(C)C3=O)CC1 (mixture of isomers) [Example 255, Ethyl hydrogen {4-[7-({2-[(2-methoxyphenyl)amino]-5-(trifluoromethyl)pyrimidin-4-yl}amino)-2-methyl-1-oxo-2,3-dihydro-1H-isoindol-4-yl]cyclohexyl}phosphonate trifluoroacetate] | > 6.00
3 | CCOP(=O)(Cc1ccc(Nc2ncc(C(F)(F)F)c(Nc3ccccc3C(=O)N3CCN(C)CC3)n2)c(OC)c1)OCC [Example 179, Diethyl (3-methoxy-4-{[4-({2-[(4-methylpiperazin-1-yl)carbonyl]phenyl}amino)-5-(trifluoromethyl)pyrimidin-2-yl]amino}benzyl)phosphonate] | > 6.00
4 | CCOP(=O)(Cc1ccc(Nc2ncc(C(F)(F)F)c(Nc3ccc(N4CCN5CCOCC5C4)c4c3C(=O)N(C)C4)n2)cc1)OCC (centres unmarked) [Example 121, Diethyl (4-{[4-{[7-(hexahydropyrazino[2,1-c][1,4]oxazin-8(1H)-yl)-2-methyl-3-oxo-2,3-dihydro-1H-isoindol-4-yl]amino}-5-(trifluoromethyl)pyrimidin-2-yl]amino}benzyl)phosphonate] | > 6.00
5 | CCOP(=O)(Cc1ccc(Nc2ncc(C(F)(F)F)c(Nc3ccc(C#N)c4c3C(=O)N(C)C4)n2)cc1)OCC [Example 161, Diethyl [4-({4-[(7-cyano-2-methyl-3-oxo-2,3-dihydro-1H-isoindol-4-yl)amino]-5-(trifluoromethyl)pyrimidin-2-yl}amino)benzyl]phosphonate] | > 6.00
6 | CCOP(=O)(Cc1ccc(Nc2ncc(C(F)(F)F)c(Nc3ccc(N4CCN(C)CC4)c4c3C(=O)N(C)C4)n2)c(OC)c1)OCC [Example 224, Diethyl (3-methoxy-4-{[4-{[2-methyl-7-(4-methylpiperazin-1-yl)-3-oxo-2,3-dihydro-1H-isoindol-4-yl]amino}-5-(trifluoromethyl)pyrimidin-2-yl]amino}benzyl)phosphonate] | > 6.00
7 | CCOP(=O)(Cc1ccc(Nc2ncc(C(F)(F)F)c(Nc3ccc([C@H]4CC[C@H](OCC)CC4)c4c3C(=O)N(C)C4)n2)c(OC)c1)OCC [Example 170, Diethyl (4-{[4-{[7-(trans-4-ethoxycyclohexyl)-2-methyl-3-oxo-2,3-dihydro-1H-isoindol-4-yl]amino}-5-(trifluoromethyl)pyrimidin-2-yl]amino}-3-methoxybenzyl)phosphonate] | > 6.00
8 | CCOP(=O)(Cc1ccc(Nc2ncc(C(F)(F)F)c(Nc3ccc(C4=CCNCC4)c4c3C(=O)N(C)C4)n2)cc1)OCC [Example 246, Diethyl (4-{[4-{[2-methyl-3-oxo-7-(1,2,3,6-tetrahydropyridin-4-yl)-2,3-dihydro-1H-isoindol-4-yl]amino}-5-(trifluoromethyl)pyrimidin-2-yl]amino}benzyl)phosphonate] | > 6.00
9 | CCOP(=O)(Cc1ccc(Nc2ncc(C(F)(F)F)c(Nc3ccc([C@H]4CC[C@@H](N5CCN(C)CC5)CC4)c4c3C(=O)N(C)C4)n2)c(OC)c1)OCC [Example 95, Diethyl (3-methoxy-4-{[4-({2-methyl-7-[cis-4-(4-methylpiperazin-1-yl)cyclohexyl]-3-oxo-2,3-dihydro-1H-isoindol-4-yl}amino)-5-(trifluoromethyl)pyrimidin-2-yl]amino}benzyl)phosphonate] | > 6.00
10 | CCOP(=O)(Cc1ccc(Nc2ncc(C(F)(F)F)c(Nc3ccc([C@H]4CC[C@H](O)CC4)c4c3C(=O)N(C)C4)n2)cc1)OCC [Example 91, Diethyl (4-{[4-{[7-(trans-4-hydroxycyclohexyl)-2-methyl-3-oxo-2,3-dihydro-1H-isoindol-4-yl]amino}-5-(trifluoromethyl)pyrimidin-2-yl]amino}benzyl)phosphonate] | > 6.00
11 | CCOP(=O)(Cc1cc(OC)c(Nc2ncc(C(F)(F)F)c(Nc3ccccc3C(=O)NC)n2)cc1F)OCC [Example 130, Diethyl (2-fluoro-5-methoxy-4-{[4-{[2-(methylcarbamoyl)phenyl]amino}-5-(trifluoromethyl)pyrimidin-2-yl]amino}benzyl)phosphonate] | > 6.00
12 | CCOP(=O)(OCC)C(OC)c1ccc(Nc2ncc(C(F)(F)F)c(Nc3ccccc3C(=O)NC)n2)cc1 (centres unmarked) [Example 160, Diethyl [methoxy(4-{[4-{[2-(methylcarbamoyl)phenyl]amino}-5-(trifluoromethyl)pyrimidin-2-yl]amino}phenyl)methyl]phosphonate] | > 6.00
13 | CCOc1ccc(Nc2nc(Nc3ccc(CP(=O)(OCC)OCC)cc3OC)ncc2C(F)(F)F)c2c1CN(C)C2=O [Example 210, Diethyl [4-({4-[(7-ethoxy-2-methyl-3-oxo-2,3-dihydro-1H-isoindol-4-yl)amino]-5-(trifluoromethyl)pyrimidin-2-yl}amino)-3-methoxybenzyl]phosphonate] | > 6.00
14 | CCOP(=O)(Cc1ccc(Nc2ncc(C(F)(F)F)c(Nc3ccc(-c4nn[nH]n4)c4c3C(=O)N(C)C4)n2)cc1)OCC [Example 181, Diethyl (4-{[4-{[2-methyl-3-oxo-7-(2H-tetrazol-5-yl)-2,3-dihydro-1H-isoindol-4-yl]amino}-5-(trifluoromethyl)pyrimidin-2-yl]amino}benzyl)phosphonate] | > 6.00
15 | CCOP(=O)(Cc1ccc(Nc2ncc(C(F)(F)F)c(Nc3cccc4c3C(=O)N(C)C4C)n2)cc1)OCC (centres unmarked) [Example 157, Diethyl [4-({4-[(1,2-dimethyl-3-oxo-2,3-dihydro-1H-isoindol-4-yl)amino]-5-(trifluoromethyl)pyrimidin-2-yl}amino)benzyl]phosphonate] | > 6.00
16 | CCOP(=O)(Cc1ccc(Nc2ncc(C(F)(F)F)c(Nc3cccc4c3C(=O)N(O)C4)n2)c(OC)c1)OCC [Example 186, Diethyl [4-({4-[(2-hydroxy-3-oxo-2,3-dihydro-1H-isoindol-4-yl)amino]-5-(trifluoromethyl)pyrimidin-2-yl}amino)-3-methoxybenzyl]phosphonate trifluoroacetate] | > 6.00
17 | CCOP(=O)(Cc1ccc(Nc2ncc(C(F)(F)F)c(Nc3ccc(C4=CCN(C)CC4)c4c3C(=O)N(C)C4)n2)cc1)OCC [Example 248, Diethyl (4-{[4-{[2-methyl-7-(1-methyl-1,2,3,6-tetrahydropyridin-4-yl)-3-oxo-2,3-dihydro-1H-isoindol-4-yl]amino}-5-(trifluoromethyl)pyrimidin-2-yl]amino}benzyl)phosphonate] | > 6.00
18 | CCOP(=O)(Cc1ccc(Nc2ncc(C(F)(F)F)c(Nc3ccc(N4CCN(CC(=O)OC(C)(C)C)CC4)c4c3C(=O)N(C)C4)n2)c(OC)c1)OCC [Example 226, tert-Butyl [4-(7-{[2-({4-[(diethoxyphosphoryl)methyl]-2-methoxyphenyl}amino)-5-(trifluoromethyl)pyrimidin-4-yl]amino}-2-methyl-1-oxo-2,3-dihydro-1H-isoindol-4-yl)piperazin-1-yl]acetate] | > 6.00
19 | CCOP(=O)(Cc1ccc(Nc2ncc(C(F)(F)F)c(Nc3ccc(C#N)cc3C(=O)NC)n2)cc1)OCC [Example 150, Diethyl (4-{[4-{[4-cyano-2-(methylcarbamoyl)phenyl]amino}-5-(trifluoromethyl)pyrimidin-2-yl]amino}benzyl)phosphonate] | > 6.00
20 | CCOP(=O)(Cc1ccc(Nc2ncc(C(F)(F)F)c(Nc3ccc([C@H]4CC[C@@H](C(=O)O)CC4)c4c3C(=O)N(C)C4)n2)c(OC)c1)OCC [Example 89, Cis-4-(7-{[2-({4-[(diethoxyphosphoryl)methyl]-2-methoxyphenyl}amino)-5-(trifluoromethyl)pyrimidin-4-yl]amino}-2-methyl-1-oxo-2,3-dihydro-1H-isoindol-4-yl)cyclohexanecarboxylic acid] | > 6.00
21 | CCOP(=O)(Cc1ccc(Nc2ncc(C(F)(F)F)c(Nc3ccc(C(=O)OC)c4c3C(=O)N(C)C4)n2)cc1)OCC [Example 118, Methyl 7-{[2-({4-[(diethoxyphosphoryl)methyl]phenyl}amino)-5-(trifluoromethyl)pyrimidin-4-yl]amino}-2-methyl-1-oxo-2,3-dihydro-1H-isoindole-4-carboxylate] | > 6.00
22 | CCOP(=O)(Cc1ccc(Nc2ncc(C(F)(F)F)c(Nc3ccc(N4CC(O)C4)c4c3C(=O)N(C)C4)n2)cc1)OCC [Example 227, Diethyl (4-{[4-{[7-(3-hydroxyazetidin-1-yl)-2-methyl-3-oxo-2,3-dihydro-1H-isoindol-4-yl]amino}-5-(trifluoromethyl)pyrimidin-2-yl]amino}benzyl)phosphonate] | > 6.00
23 | CCOP(=O)(Cc1ccc(Nc2ncc(C(F)(F)F)c(Nc3ccc(-c4cnn(C5CC(O)C5)c4)cc3C(=O)NC)n2)cc1)OCC (centres unmarked) [Example 136, Diethyl (4-{[4-({4-[1-(3-hydroxycyclobutyl)-1H-pyrazol-4-yl]-2-(methylcarbamoyl)phenyl}amino)-5-(trifluoromethyl)pyrimidin-2-yl]amino}benzyl)phosphonate] | > 6.00
24 | CCOP(=O)(Cc1ccc(Nc2ncc(C(F)(F)F)c(Nc3ccc(C#N)c4c3C(=O)N(C)C4)n2)c(OC)c1)OCC [Example 162, Diethyl [4-({4-[(7-cyano-2-methyl-3-oxo-2,3-dihydro-1H-isoindol-4-yl)amino]-5-(trifluoromethyl)pyrimidin-2-yl}amino)-3-methoxybenzyl]phosphonate] | > 6.00
25 | CCOP(=O)(Cc1ccc(Nc2ncc(C(F)(F)F)c(Nc3ccc(OC(C)C)c4c3C(=O)N(C)C4)n2)c(OC)c1)OCC [Example 211, Diethyl (3-methoxy-4-{[4-{[2-methyl-3-oxo-7-(propan-2-yloxy)-2,3-dihydro-1H-isoindol-4-yl]amino}-5-(trifluoromethyl)pyrimidin-2-yl]amino}benzyl)phosphonate] | > 6.00
26 | CCOP(=O)(Cc1ccc(Nc2ncc(C(F)(F)F)c(Nc3ccc(N4CCS(=O)(=O)CC4)c4c3C(=O)N(C)C4)n2)cc1)OCC [Example 212, Diethyl (4-{[4-{[7-(1,1-dioxidothiomorpholin-4-yl)-2-methyl-3-oxo-2,3-dihydro-1H-isoindol-4-yl]amino}-5-(trifluoromethyl)pyrimidin-2-yl]amino}benzyl)phosphonate] | > 6.00
